Assay results: paper PMC11984388, “A brain-accessible peptide modulates stroke inflammatory response and neurotoxicity by targeting BDNF-receptor TrkB-T1 specific interactome” (Theranostics, 2025)
Read-outs that look alike come from different tables or passages of the source. Residues, ends and D or L forms follow the SMILES beside them. *: point of attachment. Biotin = O=C1N[C@H]2[C@H](CS[C@H]2CCCCC(=O)*)N1

Tests used:
[1] = test system: neurons of primary cortical cultures; test: Neuronal viability (MTT) under NMDA excitotoxicity; type: cell-based, rat
Experimental: Cultures were prepared from cerebral cortex of 18-day-old Wistar rat embryos, both genders indistinctly included. Unless otherwise indicated, glial growth was inhibited after 7 days in vitro (DIVs), experimental treatments taking place after 12 DIVs. These cultures present a high percentage of neurons, combined with glial cells, mostly astrocytes. To induce excitotoxicity, cultures were incubated with NMDA (100 µM) and its co-agonist glycine (10 µM), herein denoted simply as NMDA, which induce a strong excitotoxic response in mature neurons but have no effect on astrocyte viability,[47]. When indicated, cultures were preincubated for 30 min with indicated concentrations of Tat-derived CPPs before NMDA treatment, peptides being kept in the medium along treatment. Total cell or neuronal viability assessment was established by the thiazolyl blue formazan (MTT) reduction assay. Further details are provided as Supplementary material. […]
skull for 10 min. Br ain injury encompas se s damage to vas cular endothelium, platelet activation, and subs equent microvascula r thrombotic occlus ion of the irradiate d region. The ar eas underneath this ste reotaxic position that result irradiate d ar e the prima ry motor cortex and the prima ry soma tos ens ory cortex (hindlimb and forelimb). Once completed surgery, the incision was sutured, and mice were allowed to recover.
For neuroprote ction experiments, a single dose (3 nmol/g) of peptides TMyc or TT1Ct (> 95% purity; GenScript), solubilized as 2.5 mM solutions in 0.9% NaC l, we retro-orbita lly injected 1 h af ter damage initiation. In order to improve their plas ma sta bility, thes e peptides ar e N- and C-ter modifie d by, respec tive ly, ace tyl and amide groups. Mi c e were not subje cted to other procedures before isc hemia and were naive to drug or peptide treatment. Animals were randomly allocated to the experimental groups and the resea rc hers doing the experiments were blind respec t to treatment. There was not a previous es tima tion of sa mple si z e and experiments were independently car r ied out as indicated. Twenty-four hours af ter damage induction, animals completed the beam walking test and were subs equently sa cri f i ced by cervical disloca tion to meas ure the infarc t volume, as indicated below. Be fore that, brains were se ctioned into se ri al 1-mm-thick coronal sl i ce s using a mouse brain matrix (Stoe lting, Wood Dale, IL, USA), and se ctions were completely sta ine d with 2% TTC at room temperature to visua liz e the cortical infarc ts . For immunohistochemis try, animals were deeply anes thetized 5 or 24 h af ter brain damage and intra cardially perfus ed with cold PBS and 4% paraformalde hyde in PBS as indicated below.
Primary cultures of rat cor tic al neurons to study in vitro excitotoxicity The diss ected cerebral cortices of Wis ta r rat embryos (E18), both genders included, were mechanic ally diss ociated in culture medium (Minimum Esse ntia l Me dium, ME M, Life Technologies) follow ed by se eding of the cell sus pens ion at a dens ity of 1.1x10^6 cells /ml, prepared in the sa m e medium supple me nted with 22.2 mM glucos e, 0.1 mM glutamax, 5% foetal bovine se rum (FBS), 5% donor horse se rum (HS), 100 U/ml penicillin and 100 µg/ml streptomycin. Be fore se eding, the plates were treated overnight at 37°C with 100 µg/ml poly-L-lysine and 4 µg/ml laminin. The cells were incubated at 37°C in an atmosphe re of 5% CO2 and 95% humidity. Generally, glial growth was inhibited af ter 7 days in vitro (DIV s) by adding 10 µM 5 cytos ine β-D-arabinofuranos ide (AraC) and experimental treatments took place af ter 12 DIVs. Excitotoxicity was induced by incubation with NM DA (100 µM) and glycine (10 µM) for the indicated times. As indicated, cultures were preincubated with Tat-derived CP P s before […]
Mi c e had to walk through a narrow beam (1 m × 1 cm × 1 cm) placed 50 cm above the tabletop, going from an aversive stimulus (60-W light bulb) to a black goal box with nes ting material. […]

[2] = test system: NeuN+ neurons and GFAP+ astrocytes of mixed cortical cultures; test: Peptide visualization in primary cultures (Fluorescein Avidin D); type: cell-based, rat; details: peptide 25 µM, 30 min; Fluorescein Avidin D with NeuN and GFAP double staining (Fig 1C)
[3] = test system: primary cortical cultures; details: 25 µM
[4] = peptide 25 µM preincubated 30 min, NMDA 100 µM + glycine 10 µM for 2 h, relative to untreated cells (100%), mean ± SEM, n = 8 (Fig 1E)
[5] = peptide 25 µM preincubated 30 min, NMDA 100 µM + glycine 10 µM for 4 h, relative to untreated cells (100%), mean ± SEM, n = 8 (Fig 1E)

| Compound | Relative neuronal viability (%) [1, 4] [%] | Relative neuronal viability (%) [1, 5] [%] | Peptide entry into neurons and astrocytes [2] | Relative cell viability (%) ([3]; 4 h) | Relative cell viability (%) ([3]; 6 h) | Relative cell viability (%) ([3]; 24 h) | Neuronal viability ([1]; CPPs 0: peptide and NMDA (100 µM) at the same time, viability after 4 h of excitotoxicity, relative to untreated cells (100%), mean, n = 4-8 (Fig S4)) [%] | Neuronal viability ([1]; CPPs 30: peptide added 30' post-NMDA (100 µM), viability after 4 h of excitotoxicity, relative to untreated cells (100%), mean, n = 4-8 (Fig S4)) [%] | Neuronal viability ([1]; CPPs 60: peptide added 60' post-NMDA (100 µM), viability after 4 h of excitotoxicity, relative to untreated cells (100%), mean, n = 4-8 (Fig S4)) [%] | Neuronal viability ([1]; dose-response experiment (Fig 3B): peptide 15 µM preincubated 30 min, NMDA 2 h, mean ± SEM, n = 8) [%] | Relative neuronal viability (%) ([1]; 2 h, 15 µM) | Relative neuronal viability (%) ([1]; 4 h, 15 µM) |
| --- | --- | --- | --- | --- | --- | --- | --- | --- | --- | --- | --- | --- |
| CC[C@H](C)[C@H](NC(=O)[C@H](CC(C)C)NC(=O)[C@H](CCCCN)NC(=O)[C@H](CCC(N)=O)NC(=O)[C@H](CCC(=O)O)NC(=O)[C@H](CCC(=O)O)NC(=O)[C@H](C)NC(=O)[C@H](CCCNC(=N)N)NC(=O)[C@H](CCCNC(=N)N)NC(=O)[C@H](CCCNC(=N)N)NC(=O)[C@H](CCC(N)=O)NC(=O)[C@H](CCCNC(=N)N)NC(=O)[C@H](CCCNC(=N)N)NC(=O)[C@H](CCCCN)NC(=O)[C@H](CCCCN)NC(=O)[C@H](CCCNC(=N)N)NC(=O)CNC(=O)[C@H](Cc1ccc(O)cc1)NC(=O)CCCC[C@@H]1SC[C@@H]2NC(=O)N[C@@H]21)C(=O)N[C@@H](CO)C(=O)N[C@@H](CCC(=O)O)C(=O)N[C@@H](CCC(=O)O)C(=O)N[C@@H](CC(=O)O)C(=O)N[C@@H](CC(C)C)C(=O)N[C@@H](CC(C)C)C(=O)N[C@@H](CCCNC(=N)N)C(N)=O [Bio-TMyc, reference compound] (Biotin-YGRKKRRQRRRAEEQKLISEEDLLR-NH2) | 24 ± 3 | 16 ± 3 | found inside both NeuN+ (arrowheads) and GFAP+ (asterisks) cells | 100 | 97 | 97 |  |  |  |  |  |  |
| Ac-YGRKKRRQRRRPPFVLFHKIPLDG-NH2 [TT1Ct] |  |  |  |  |  |  | 59 | 31 | 37 | 46 ± 7 |  |  |
| CC[C@H](C)[C@H](NC(=O)[C@H](CCCCN)NC(=O)[C@H](Cc1c[nH]cn1)NC(=O)[C@H](Cc1ccccc1)NC(=O)[C@H](CC(C)C)NC(=O)[C@@H](NC(=O)[C@H](Cc1ccccc1)NC(=O)[C@H](CCCNC(=N)N)NC(=O)[C@H](CCCNC(=N)N)NC(=O)[C@H](CCCNC(=N)N)NC(=O)[C@H](CCC(N)=O)NC(=O)[C@H](CCCNC(=N)N)NC(=O)[C@H](CCCNC(=N)N)NC(=O)[C@H](CCCCN)NC(=O)[C@H](CCCCN)NC(=O)[C@H](CCCNC(=N)N)NC(=O)CNC(=O)[C@H](Cc1ccc(O)cc1)NC(=O)CCCC[C@@H]1SC[C@@H]2NC(=O)N[C@@H]21)C(C)C)C(=O)N1CCC[C@H]1C(=O)N[C@@H](CC(C)C)C(=O)N[C@@H](CC(=O)O)C(=O)NCC(N)=O [Bio-sTT1Ct] (Biotin-YGRKKRRQRRRFVLFHKIPLDG-NH2) | 50 ± 5 | 32 ± 3 | found inside both NeuN+ (arrowheads) and GFAP+ (asterisks) cells |  | 99 | 103 |  |  |  |  | 45 | 39 |
